Experimental data from ChEMBL document CHEMBL1129838, “Synthesis and pharmacological evaluation of sulfone substituted HIV protease inhibitors” (Bioorg Med Chem Lett, 1997).
“And” between values parts separate entries of the source, which are not always exact repeats. Identical values can stand only once.

What was measured:
[1] = target: Human immunodeficiency virus type 1 protease (Human immunodeficiency virus 1, UniProt Q72874); assay: Inhibition of HIV-1 protease.
[2] = tested on: Human immunodeficiency virus 1; assay: Antiviral activity against HIV-1 IIIB in H9 (human leukemia) cells.; format: functional, organism-based
[3] = Human immunodeficiency virus 1, H9

SMILES | Ki [1] | IC50 [2, 3] | IC50 ([2]; h9)
O=C(O)c1ccc(S(=O)(=O)Cc2cccc(C(c3c(O)c4c(oc3=O)CCCCCC4)C3CC3)c2)cc1 (centres undefined) | 7 nM | > 30000 nM | –
O=c1cc(C(CC2CC2)CC2CC2)oc(O)c1C(c1cccc(NS(=O)(=O)c2ccccn2)c1)C1CC1 (centres undefined) | 0.66 nM | – | > 1000 nM and < 3000 nM
Cn1ccnc1S(=O)(=O)Cc1cccc(C(c2c(O)c3c(oc2=O)CCCCCC3)C2CC2)c1 (centres undefined) | 3 nM | 20400 nM | –
Cn1ccnc1S(=O)(=O)Nc1cccc(C(c2c(O)cc(C(CC3CC3)CC3CC3)oc2=O)C2CC2)c1 (centres undefined) | 0.73 nM | – | > 1000 nM and < 3000 nM
O=C(O)c1ccc(S(=O)(=O)Nc2cccc(C(c3c(O)c4c(oc3=O)CCCCCC4)C3CC3)c2)cc1 (centres undefined) | – | > 10000 nM | –
O=c1c2c(oc(O)c1C(c1cccc(CS(=O)(=O)c3ccccc3)c1)C1CC1)CCCCCC2 (centres undefined) | 6 nM | > 30000 nM | –
Cc1ccc(S(=O)(=O)Cc2cccc(C(c3c(O)c4c(oc3=O)CCCCCC4)C3CC3)c2)cc1 (centres undefined) | 4.1 nM | > 30000 nM | –
Cn1ccnc1S(=O)(=O)Nc1cccc(C(c2c(O)c3c(oc2=O)CCCCCC3)C2CC2)c1 (centres undefined) | 1.1 nM | > 3000 nM | –
N#Cc1ccc(S(=O)(=O)Cc2cccc(C(c3c(O)oc4c(c3=O)CCCCCC4)C3CC3)c2)cc1 (centres undefined) | 1.9 nM | 20500 nM | –

Next, values leading:

Ki [1] | IC50 [2, 3] | IC50 ([2]; h9) | SMILES
2.3 nM | 7700 nM | – | O=c1cc(C(CC2CC2)CC2CC2)oc(O)c1C(c1cccc(CS(=O)(=O)c2ccccn2)c1)C1CC1 (centres undefined)
1.9 nM | 10000 nM | – | O=c1c2c(oc(O)c1C(c1cccc(CS(=O)(=O)c3ccccn3)c1)C1CC1)CCCCCC2 (centres undefined)
19 nM | 19800 nM | – | O=c1cc(C(CC2CC2)CC2CC2)oc(O)c1C(c1cccc(CS(=O)(=O)c2ccc(F)cc2)c1)C1CC1 (centres undefined)
– | 3600 nM | – | Cc1ccc(S(=O)(=O)Nc2cccc(C(c3c(O)c4c(oc3=O)CCCCCC4)C3CC3)c2)cc1 (centres undefined)
– | 2200 nM | – | O=c1cc(C(CC2CC2)CC2CC2)oc(O)c1C(c1cccc(NS(=O)(=O)c2ccc(F)cc2)c1)C1CC1 (centres undefined)
3.1 nM | 12000 nM | – | Cn1ccnc1S(=O)(=O)Cc1cccc(C(c2c(O)cc(C(CC3CC3)CC3CC3)oc2=O)C2CC2)c1 (centres undefined)
0.86 nM | < 1000 nM | – | O=c1c2c(oc(O)c1C(c1cccc(NS(=O)(=O)c3ccccn3)c1)C1CC1)CCCCCC2 (centres undefined)
2.1 nM | 14500 nM | – | O=c1c2c(oc(O)c1C(c1cccc(CS(=O)(=O)c3ccc(F)cc3)c1)C1CC1)CCCCCC2 (centres undefined)
– | 5000 nM | – | O=c1c2c(oc(O)c1C(c1cccc(NS(=O)(=O)c3ccccc3)c1)C1CC1)CCCCCC2 (centres undefined)
– | 1500 nM | – | N#Cc1ccc(S(=O)(=O)Nc2cccc(C(c3c(O)c4c(oc3=O)CCCCCC4)C3CC3)c2)cc1 (centres undefined)
– | 2100 nM | – | O=c1c2c(oc(O)c1C(c1cccc(NS(=O)(=O)c3ccc(F)cc3)c1)C1CC1)CCCCCC2 (centres undefined)
